Experimental data: paper PMC12150326 (The Journal of Organic Chemistry, 2025)
“And” between values parts separate entries of the source, which are not always exact repeats. Equal values may be shown once. Read-outs that look alike come from different tables or passages of the source.

Legend:
[1] = Experimental rotational energy barrier (thermal racemization, chiral HPLC); assay type: physicochemical; conditions: 135 °C in xylenes, Eyring equation
Procedure: (aR)-6 and (aS)-6 were readily separable from one another and racemic iso -6 through the use of a polysaccharide-based chiral column (Diacel IA column) fitted to an automated medium-pressure liquid chromatography unit (Biotage Isolera Prime). Racemization was observable after heating a solution of either enantiopure (aR)- or (aS)-6 at 135 °C in xylenes over a few hours, and the rate of enantiomerization was extrapolated using the Eyring equation (ΔG ^‡ = 31.2 ± 0.3 kcal/mol). (aR)- and (aS )-iso-6 were separable in an analogous fashion using a chiral IC polysaccharide column. […] Thus, we can project that the rotational energy barrier is […] 37 kcal/mol. However, a computationally determined rotational barrier for iso -6 was 33.5 kcal/mol, which is roughly 3 kcal/mol more than that calculated for 6. One potential explanation for this notable difference in configurational stability is the greater double bond character of the methyl-bearing C^4–C^5 carbon of iso -6 in comparison to the C^5–C^6 in 6, as this would both shorten and rigidify this steric-bearing bond (see Scheme A/B for details). […] Studies have previously described differences in rotational barriers of DAAC (2) and its analogous isomer that, while less dramatic, are consistent with this trend (ΔG ^‡ = 22.1 vs 23.4 kcal/mol). […]
IV. Experimental Profiling of Dihedral Angles
Rotational Energy Barrier Determination. A small spatula tip (~0.2 mg) of either (aR)-6 (aka, (aR)-MT-MTC) or (aS)-6 (aka, (aS)-MT-MTC) was diluted in 2 mL o-xylenes in a large vial containing a stir bar. The solution was heated to 135 °C open to air (temperature set to 135 °C, but fluxuated between 134 and 138 °C).
~100 µL aliquots were extracted from solution using a syringe fitted with a long disposable needle at various time intervals and diluted into automated sample vials containing 500 µL CH2Cl2 to rapidly cool. These samples were monitored on Agilent with an analytical HPLC IA column, using 0 – 40% iPrOH in Hexanes gradient over 30 minutes at a flow rate of 0.5 mL/min, and a pressure of roughly 5 bar). Samples eluted approximately 20 minutes into run, with (aR)-6 eluting first, followed by (aS)-6. Three separate runs were carried out, two of which monitored racemization of (aS)-6, and one of which monitored racemization of (aR)- […]
Integration of the HPLC traces were used to determine enantiomeric excess by calculating the difference between the two enantiomers and dividing that by the sum of the two enantiomers, and then multiplying that […]
provided a slope (corresponding to kracemization), and dividing this number […] providing kenantiomerization (or kent in equation below), with units inverse seconds. A summary of data follows (Table S5), and representative chromatograms illustrated in section VI.

SW-620 = tested on: SW-620; parameters: method as in NCI-60 database; conditions: SW-620 ref NCI-60 database, cited from earlier work
SF-539 = tested on: SF-539; parameters: method as in NCI-60 database; conditions: SF-539 ref NCI-60 database, cited from earlier work
HT29 = tested on: HT29; parameters: method as in NCI-60 database; conditions: HT29 ref NCI-60 database, cited from earlier work
DU-145 = tested on: DU-145; parameters: method as in NCI-60 database; conditions: DU-145 ref NCI-60 database, cited from earlier work
K-562 = tested on: K-562; parameters: method as in NCI-60 database; conditions: K-562 ref NCI-60 database, cited from earlier work
A498 = tested on: A498; parameters: method as in NCI-60 database; conditions: A498 ref NCI-60 database, cited from earlier work
OVCAR-8 = tested on: OVCAR-8; parameters: method as in NCI-60 database; conditions: OVCAR-8 ref NCI-60 database, cited from earlier work
XF 498 = tested on: XF 498; parameters: method as in NCI-60 database; conditions: XF 498 ref NCI-60 database, cited from earlier work
SK-MEL-28 = tested on: SK-MEL-28; parameters: method as in NCI-60 database; conditions: SK-MEL-28 ref NCI-60 database, cited from earlier work
U251 = tested on: U251; parameters: method as in NCI-60 database; conditions: U251 ref NCI-60 database, cited from earlier work
MALME-3M = tested on: MALME-3M; parameters: method as in NCI-60 database; conditions: MALME-3M ref NCI-60 database, cited from earlier work
SK-OV-3 = tested on: SK-OV-3; parameters: method as in NCI-60 database; conditions: SK-OV-3 ref NCI-60 database, cited from earlier work

Structure (SMILES): COc1cc(C)c(-c2ccc(OC)c(=O)cc2C)c(OC)c1OC (single isomer, unassigned) [(aR)-6]
- ΔG‡ of enantiomerization, experimental [1]: 31.2 ± 0.3 kcal/mol

Structure (SMILES): COc1cc2c(c(OC)c1OC)-c1ccc(OC)c(=O)cc1[C@@H](NC(C)=O)CC2 [Colchicine, (−)-Colchicine]
- GI50 (SW-620): 20 nM
- Log10GI50 (SW-620): -7.66 Molar
- Log10LC50 (SW-620): > -4.00 Molar
- Log10GI50 (SW-620; listed as 757/1): -7.46 Molar
- GI50 (SF-539): 30 nM
- Log10GI50 (SF-539): -7.54 Molar
- Log10GI50 (SF-539; listed as 757/1): -7.48 Molar
- Log10TGI (SF-539; listed as 757/9): -6.82 Molar
- Log10LC50 (SF-539; listed as 757/21): > -4.00 Molar and -4.05 Molar
- GI50 (HT29): 30 nM
- Log10GI50 (HT29): -7.55 Molar
- Log10LC50 (HT29): > -4.00 Molar
- Log10TGI (HT29; listed as 757/1): -4.61 Molar
- Log10GI50 (HT29; listed as 757/9): -7.32 Molar
- Log10TGI (HT29; listed as 757/9): -6.43 Molar
- GI50 (DU-145): 8320 nM
- Log10GI50 (DU-145): -5.08 Molar
- Log10LC50 (DU-145): > -4.00 Molar
- Log10GI50 (DU-145; listed as 757/9): -7.29 Molar
- Log10TGI (DU-145; listed as 757/9): -5.83 Molar
- Log10GI50 (DU-145; listed as 757/21): -5.08 Molar
- Log10TGI (DU-145; listed as 757/21): > -4.00 Molar
- GI50 (K-562): 20 nM
- Log10GI50 (K-562): -7.79 Molar
- Log10LC50 (K-562): > -4.00 Molar
- Log10TGI (K-562): > -4.00 Molar
- Log10GI50 (K-562; listed as 757/1): -7.47 Molar
- Log10GI50 (K-562; listed as 757/21): < -8.00 Molar and -7.84 Molar and -7.79 Molar
- Log10LC50 (A498): > -4.00 Molar
- Log10GI50 (A498; listed as 757/1): -6.96 Molar
- Log10TGI (A498; listed as 757/1): > -4.00 Molar
- Log10TGI (A498; listed as 757/9): -5.50 Molar
- Log10GI50 (A498; listed as 757/21): -7.68 Molar and -7.40 Molar
- Log10TGI (OVCAR-8; listed as 757/1): > -4.00 Molar
- Log10LC50 (OVCAR-8; listed as 757/9): -7.11 Molar
- Log10LC50 (OVCAR-8; listed as 757/21): > -4.00 Molar
- Log10LC50 (XF 498): > -4.00 Molar
- Log10TGI (XF 498; listed as 757/1): -4.41 Molar
- Log10GI50 (SK-MEL-28; listed as 757/1): -7.02 Molar
- Log10LC50 (SK-MEL-28; listed as 757/9): -4.44 Molar
- Log10TGI (SK-MEL-28; listed as 757/9): -4.95 Molar
- Log10LC50 (SK-MEL-28; listed as 757/21): > -4.00 Molar
- Log10TGI (SK-MEL-28; listed as 757/21): > -4.00 Molar
- GI50 (U251): 30 nM
- Log10GI50 (U251): -7.53 Molar
- Log10GI50 (U251; listed as 757/1): -7.38 Molar
- Log10LC50 (U251; listed as 757/1): > -4.00 Molar
- Log10TGI (U251; listed as 757/1): > -4.00 Molar
- Log10GI50 (U251; listed as 757/9): -7.47 Molar
- Log10LC50 (U251; listed as 757/21): -4.31 Molar
- Log10TGI (U251; listed as 757/21): -6.89 Molar and -6.80 Molar
- Log10LC50 (MALME-3M): > -4.00 Molar
- Log10GI50 (MALME-3M; listed as 757/1): -7.28 Molar
- Log10GI50 (MALME-3M; listed as 757/9): -7.97 Molar
- Log10LC50 (SK-OV-3): > -4.00 Molar
- Log10GI50 (SK-OV-3; listed as 757/1): -4.43 Molar
- Log10TGI (SK-OV-3; listed as 757/1): -4.07 Molar and -4.21 Molar
- Log10GI50 (SK-OV-3; listed as 757/9): -7.55 Molar and -7.81 Molar
- Log10TGI (SK-OV-3; listed as 757/9): -7.17 Molar
- Log10GI50 (SK-OV-3; listed as 757/21): -7.71 Molar and -7.65 Molar
